# Where a name gives a salt, the structure may show the parent alone.
# Biological target: T1, recombinant human liver glycogen phosphorylase (Homo sapiens, UniProt P06737)
# T1 construct: made in house; host or cells: Sf9 insect cells (crude homogenate, diluted, used as the enzyme solution)
# T1 sequence (P06737 1-847): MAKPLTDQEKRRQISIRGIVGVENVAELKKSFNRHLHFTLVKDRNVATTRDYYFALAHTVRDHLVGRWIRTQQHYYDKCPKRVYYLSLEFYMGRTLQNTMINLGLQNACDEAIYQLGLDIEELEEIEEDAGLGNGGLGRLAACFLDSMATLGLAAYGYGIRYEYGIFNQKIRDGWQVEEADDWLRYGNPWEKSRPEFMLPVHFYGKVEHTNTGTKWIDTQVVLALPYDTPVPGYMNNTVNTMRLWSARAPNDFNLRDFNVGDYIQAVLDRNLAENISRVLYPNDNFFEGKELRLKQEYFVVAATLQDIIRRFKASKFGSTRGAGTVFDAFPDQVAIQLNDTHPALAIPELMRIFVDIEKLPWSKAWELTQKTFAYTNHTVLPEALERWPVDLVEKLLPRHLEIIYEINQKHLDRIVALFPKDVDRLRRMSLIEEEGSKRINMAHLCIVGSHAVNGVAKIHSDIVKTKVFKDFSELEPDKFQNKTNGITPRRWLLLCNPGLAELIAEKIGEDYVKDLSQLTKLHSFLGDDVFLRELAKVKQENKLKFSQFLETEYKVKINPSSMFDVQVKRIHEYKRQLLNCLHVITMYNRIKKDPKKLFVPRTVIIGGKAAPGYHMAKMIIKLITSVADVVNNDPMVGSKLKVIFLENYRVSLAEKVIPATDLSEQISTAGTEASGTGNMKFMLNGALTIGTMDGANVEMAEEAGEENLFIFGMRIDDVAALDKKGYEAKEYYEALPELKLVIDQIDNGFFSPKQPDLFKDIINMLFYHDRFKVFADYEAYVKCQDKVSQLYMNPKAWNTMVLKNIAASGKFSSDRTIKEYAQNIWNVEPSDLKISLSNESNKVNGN
# Experiment: Measuring liver glycogen phosphorylase activity (forward reaction system, NADPH absorbance at 340 nm)
# Format: biochemical
# Details: figure in brackets (100); read-out: IC50: % value given with (100)
# Method in brief: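 Sf9 homogenate expressing the enzyme, in pH 6.8 BES/EDTA, with glycogen and phosphate substrate plus glucose, coupled via phosphoglucomutase/G6PDH to NADPH formation. A340 change over 75 min at room temperature, blank-corrected; IC50 linearly interpolated between the two concentrations bracketing 50% inhibition versus 1% DMSO control.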
row,inhibition at 0.1 µM [%],SMILES
1,2.1,CN(C(=O)c1cc(NC(=O)c2cc(F)c(F)cc2Cl)[nH]n1)c1ccc(C(=N)NO)cc1 [Example 6-11]
2,17.5,CN(C(=O)c1cc(NC(=O)c2cc(F)c(F)cc2Cl)[nH]n1)c1ccc(C(=O)OCOC(=O)C(C)(C)C)cc1 [Example 6-13]
3,20.1,COC(=S)ON=C(N)c1ccc(N(C)C(=O)c2cc(NC(=O)c3cc(F)c(F)cc3Cl)[nH]n2)cc1 [Example 6-14]
4,6.8,CCOC(=O)c1csc(N(CC)C(=O)c2cc(NC(=O)c3cc(F)c(F)cc3Cl)[nH]n2)n1 [Example 6-18]
5,12.3,O=C(NC1CCc2ccccc21)c1cc(NC(=O)c2cc(F)c(F)cc2Cl)[nH]n1 (centres unmarked) [Example 6-41]
6,21.7,O=C(NC1Cc2ccccc2C1)c1cc(NC(=O)c2cc(F)c(F)cc2Cl)[nH]n1 [Example 6-42]
7,41.1,CCOC1(C)Nc2ccccc2CN1C(=O)c1cc(NC(=O)c2cc(F)c(F)cc2Cl)[nH]n1 (centres unmarked) [Example 6-47]
8,47.3,Nc1cc(F)c(F)cc1C(=O)Nc1cc(C(=O)NCc2cccnc2)n[nH]1 [Example 7-11]
9,8,CS(=O)(=O)Nc1cc(F)c(F)cc1C(=O)Nc1cc(C(=O)NCc2cccnc2)n[nH]1 [Example 7-12]
10,1.9,CC(=O)Nc1cc(F)c(F)cc1C(=O)Nc1cc(C(=O)NCc2cccnc2)n[nH]1 [Example 7-13]
11,4.6,O=C(NCc1cccnc1)c1cc(NC(=O)c2sc(Cl)c(Cl)c2Cl)[nH]n1 [Example 7-14]

# Same assay, conditions: figure in brackets (300); read-out: IC50 column: % value printed with (300)
row,inhibition at 0.3 µM [%],SMILES
1,46.8,CN(C)C(=O)c1ccc(N(C)C(=O)c2cc(NC(=O)c3cc(F)c(Cl)cc3Cl)[nH]n2)cc1 [Example 6-4]
2,12.9,CN(C(=O)c1cc(NC(=O)c2cc(F)c(F)cc2Cl)[nH]n1)c1ccc(C#N)cc1 [Example 6-7]
3,5.5,CN(C(=O)c1cc(NC(=O)c2cc(F)c(N=[N+]=[N-])cc2Cl)[nH]n1)c1ccc(C#N)cc1 [Example 6-9]
4,8.5,O=C(NCc1cccnc1)c1cc(NC(=O)c2cc(F)c(Cl)nc2Cl)[nH]n1 [Example 7-5]
5,2.9,O=C(NCc1cccnc1)c1cc(NC(=O)c2sccc2Cl)[nH]n1 [Example 7-7]
6,6.8,O=C(Nc1cc(C(=O)NCc2cccnc2)n[nH]1)c1ccccc1 [Example 7-8]

row,SMILES,inhibition at 0.3 µM [%]
1,CN(C(=O)c1cc(NC(=O)c2cc(F)c(F)cc2Cl)[nH]n1)c1ccc(-c2nnc[nH]2)cc1 [Example 6-8],11.7

# Same assay, conditions: human liver glycogen phosphorylase; class symbol
row,IC50 [nM],SMILES
1,< 100,CN(C(=O)c1cc(NC(=O)c2cc(F)c(F)cc2Cl)[nH]n1)c1ccc(C(=O)NS(C)(=O)=O)cc1 [Example 6-5]
2,100 to 300,CN(C(=O)c1cc(NC(=O)c2cc(F)c(N=[N+]=[N-])cc2Cl)[nH]n1)c1ccc(-c2nnn[nH]2)cc1 [Example 6-10]
3,< 100,CN(C(=O)c1cc(NC(=O)c2cc(F)c(F)cc2Cl)[nH]n1)c1ccc(-c2noc(=S)[nH]2)cc1 [Example 6-15]
4,< 100,CS(=O)(=O)Nc1ccccc1CNC(=O)c1cc(NC(=O)c2cc(F)c(F)cc2Cl)[nH]n1 [Example 6-19]
5,< 100,CC(=O)Nc1ccccc1CNC(=O)c1cc(NC(=O)c2cc(F)c(F)cc2Cl)[nH]n1 [Example 6-20]
6,< 100,CC(=Nc1ccccc1CNC(=O)c1cc(NC(=O)c2cc(F)c(F)cc2Cl)[nH]n1)N(C)C [Example 6-24]
7,< 100,CC(=Nc1cccc(CNC(=O)c2cc(NC(=O)c3cc(F)c(F)cc3Cl)[nH]n2)c1)N(C)C [Example 6-25]
8,< 100,CC(=Nc1ccc(CNC(=O)c2cc(NC(=O)c3cc(F)c(F)cc3Cl)[nH]n2)cc1)N(C)C [Example 6-26]
9,< 100,CCN(C=Nc1ccccc1CNC(=O)c1cc(NC(=O)c2cc(F)c(F)cc2Cl)[nH]n1)CC [Example 6-27]
10,< 100,CCN(C=Nc1cccc(CNC(=O)c2cc(NC(=O)c3cc(F)c(F)cc3Cl)[nH]n2)c1)CC [Example 6-28]
11,< 100,CCN(C=Nc1ccc(CNC(=O)c2cc(NC(=O)c3cc(F)c(F)cc3Cl)[nH]n2)cc1)CC [Example 6-29]
12,< 100,CC(=N)Nc1ccccc1CNC(=O)c1cc(NC(=O)c2cc(F)c(F)cc2Cl)[nH]n1 [Example 6-30]
13,< 100,CC(=N)Nc1cccc(CNC(=O)c2cc(NC(=O)c3cc(F)c(F)cc3Cl)[nH]n2)c1 [Example 6-31]
14,< 100,CC(=N)Nc1ccc(CNC(=O)c2cc(NC(=O)c3cc(F)c(F)cc3Cl)[nH]n2)cc1 [Example 6-32]
15,< 100,N=C(Nc1cccc(CNC(=O)c2cc(NC(=O)c3cc(F)c(F)cc3Cl)[nH]n2)c1)c1ccccc1F [Example 6-34]
16,< 100,N=C(Nc1ccc(CNC(=O)c2cc(NC(=O)c3cc(F)c(F)cc3Cl)[nH]n2)cc1)c1ccccc1F [Example 6-35]
17,< 100,CN(C)C(=O)Nc1cccc(CNC(=O)c2cc(NC(=O)c3cc(F)c(F)cc3Cl)[nH]n2)c1 [Example 6-36]
18,< 100,CN(C)C(=O)Nc1ccc(CNC(=O)c2cc(NC(=O)c3cc(F)c(F)cc3Cl)[nH]n2)cc1 [Example 6-37]
19,< 100,Cc1ccc(S(=O)(=O)Nc2ccccc2CNC(=O)c2cc(NC(=O)c3cc(F)c(F)cc3Cl)[nH]n2)cc1 [Example 6-38]
20,< 100,Nc1cc(F)c(F)cc1CNC(=O)c1cc(NC(=O)c2cc(F)c(F)cc2Cl)[nH]n1 [Example 6-40]
21,< 100,O=C(Nc1cc(C(=O)N2C=NC3CCCCC3C2)n[nH]1)c1cc(F)c(F)cc1Cl (centres unmarked) [Example 6-43]
22,< 100,O=C(Nc1cc(C(=O)N2C=Nc3ccccc3C2)n[nH]1)c1cc(F)c(F)cc1Cl [Example 6-44]
23,< 100,O=C(Nc1cc(C(=O)N2C=Nc3cc(F)ccc3C2)n[nH]1)c1cc(F)c(F)cc1Cl [Example 6-45]
24,< 100,O=C(Nc1cc(C(=O)N2C=Nc3ccc(F)cc3C2)n[nH]1)c1cc(F)c(F)cc1Cl [Example 6-46]
25,< 100,N/C(=N\O)c1cc(CNC(=O)c2cc(NC(=O)c3cc(F)c(F)cc3Cl)[nH]n2)ccn1 [Example 6-49]
26,< 100,O=C(NCc1ccnc(-c2noc(=O)[nH]2)c1)c1cc(NC(=O)c2cc(F)c(F)cc2Cl)[nH]n1 [Example 6-50]
27,< 100,Cc1cc(F)c(F)cc1C(=O)Nc1cc(C(=O)N(C)c2ccc(-c3nnn[nH]3)cc2)n[nH]1 [Example 7-2]
28,< 100,O=C(NCc1cccnc1)c1cc(NC(=O)c2ccc(Cl)cc2Cl)[nH]n1 [Example 7-3]
29,< 100,Cc1cc(F)c(F)cc1C(=O)Nc1cc(C(=O)NCc2ccnc(C#N)c2)n[nH]1 [Example 7-15]
30,< 100,Cc1cc(F)c(F)cc1C(=O)Nc1cc(C(=O)NCc2ccnc(-c3nnn[nH]3)c2)n[nH]1 [Example 7-16]

# System: db/db mice
# Experiment: Measuring blood plasma glucose concentration in db/db mice (hypoglycemic effect)
# Format: in vivo
# Parameters: key: ++: compounds exhibiting statistically significant hypoglycemic effect at a dose of 10 mg/kg or less; +: compounds exhibiting not significant but obvious hypoglycemic effect at a dose of 10 mg/kg
# Details: db/db mice fasted 4 h, oral administration, plasma glucose 1 and 3 hours after administration, dose 10 mg/kg or less, Dunnett test vs solvent
# Description: 2. Exemplary Test (2) Method for Measuring Blood Plasma Glucose Concentration
# Using db/db mice representing an obesity type of diabetic model were used to examine the effect of compound (1) of the present invention on glucose concentrations in plasma. Plasma glucose concentrations of the db/db mice (9-18 weeks old) were measured, and the mice were divided into groups each of 5 or 8 mice such that there would be no difference in the average value of plasma glucose concentrations. After fasting for four hours, the example compound or the solvent (0.5% methylcellulose) was administered orally to the db/db mice, and plasma glucose concentrations were measured 1 and 3 hours after administration. The analysis of the hypoglycemic effect of the example compound was performed through a statistical test at every hour between the group receiving the solvent and the groups of example compound (Dunnett test).
row,SMILES,vivo (hypoglycemic effect in db/db mice)
1,"O=C(NCc1cccnc1)c1cc(NC(=O)c2cc(F)c(F)cc2Cl)[nH]n1 [Example 1-1-1, 5-(2-chloro-4,5-difluoro-benzoylamino)-1H-pyrazole-3-carboxylic acid (pyridin-3-ylmethyl)-amide dihydrochloride]",++
2,CN(C)c1ccc(CNC(=O)c2cc(NC(=O)c3cc(F)c(F)cc3Cl)[nH]n2)cc1.Cl [Example 3-29],+
3,"CN(C(=O)c1cc(NC(=O)c2cc(F)c(F)cc2Cl)[nH]n1)c1ccc(C(=O)[O-])cc1.[Na+] [Example 4-2-1, 4-{[5-(2-chloro-4,5-difluoro-benzoylamino)-1H-pyrazole-3-carbonyl]-methyl-amino}-benzoic acid sodium salt]",++
4,Cc1noc(C)c1CNC(=O)c1cc(NC(=O)c2cc(F)c(F)cc2Cl)[nH]n1.Cl [Example 5-8],+
5,Cc1nn(C)c(C)c1CNC(=O)c1cc(NC(=O)c2cc(F)c(F)cc2Cl)[nH]n1 [Example 5-9],+

# Reference: patent US20070032529A1, “Pyrazole compounds and their use as antidiabetes agents” (Japan Tobacco Inc., priority 2005, published 2007)
